Assay results taken from patent US20250163051A1, “PYRIMIDO AROMATIC RING COMPOUND AND USE THEREOF IN DRUG” (SUNSHINE LAKE PHARMA CO., LTD., priority 2022, published 2025).

Assays:
CYP2B6 = assay: Induction of CYP2B6 in frozen human hepatocytes; assay type: in vitro ADME; settings: 72 h induction, concentration and readout not stated; for CYP2B6 Induction percentage relative to positive control (%): positive control Phenobarbital
Experimental: Experimental purpose: Using frozen human hepatocytes as the test system, the induction effects of the test substances on CYP1A2, CYP2B6 and CYP3A4 were evaluated from two aspects of enzyme activity and mRNA level.
Experimental method: 24 hours after cell plating, induction was started by adding medium containing the test compound (test concentrations were 10, 1, and 0.1 μM), and fresh drug-containing medium was replaced every 24 hours. After 72 hours of induction, the medium was replaced with medium containing CYP1A2, CYP2B6, and CYP3A4 specific substrates for 30 minutes of incubation. 100 μL was taken for treatment, and the labeled metabolites of the substrates were detected to evaluate the enzyme activity level. Finally, the cells were lysed and reverse transcribed, and the expression levels of CYP1A2, CYP2B6 and CYP3A4 genes in the cells were evaluated by real-time quantitative PCR.
The induction fold of the test compound compared with the blank control and the induction percentage of the test compound compared with the positive control were used as the basis for evaluating the induction potential of the test compound. Among them, the positive control for CYP1A2 is Omeprazole; the positive control for CYP2B6 is Phenobarbital; the positive control for CYP3A4 is Rifampicin.

hTLR7 = molecular target: T1, hTLR7 (Homo sapiens, UniProt Q9NYK1); assay: Agonistic activity on human TLR7 in HEK-Blue hTLR7 cells (QUANTI-Blue); assay type: cell-based; settings: 24 h incubation, OD650, read-out: hTLR 7 EC50
T1 construct: expressed in transfected cells; host or cells: HEK-Blue hTLR7 cells
T1 sequence (Q9NYK1 27-1049): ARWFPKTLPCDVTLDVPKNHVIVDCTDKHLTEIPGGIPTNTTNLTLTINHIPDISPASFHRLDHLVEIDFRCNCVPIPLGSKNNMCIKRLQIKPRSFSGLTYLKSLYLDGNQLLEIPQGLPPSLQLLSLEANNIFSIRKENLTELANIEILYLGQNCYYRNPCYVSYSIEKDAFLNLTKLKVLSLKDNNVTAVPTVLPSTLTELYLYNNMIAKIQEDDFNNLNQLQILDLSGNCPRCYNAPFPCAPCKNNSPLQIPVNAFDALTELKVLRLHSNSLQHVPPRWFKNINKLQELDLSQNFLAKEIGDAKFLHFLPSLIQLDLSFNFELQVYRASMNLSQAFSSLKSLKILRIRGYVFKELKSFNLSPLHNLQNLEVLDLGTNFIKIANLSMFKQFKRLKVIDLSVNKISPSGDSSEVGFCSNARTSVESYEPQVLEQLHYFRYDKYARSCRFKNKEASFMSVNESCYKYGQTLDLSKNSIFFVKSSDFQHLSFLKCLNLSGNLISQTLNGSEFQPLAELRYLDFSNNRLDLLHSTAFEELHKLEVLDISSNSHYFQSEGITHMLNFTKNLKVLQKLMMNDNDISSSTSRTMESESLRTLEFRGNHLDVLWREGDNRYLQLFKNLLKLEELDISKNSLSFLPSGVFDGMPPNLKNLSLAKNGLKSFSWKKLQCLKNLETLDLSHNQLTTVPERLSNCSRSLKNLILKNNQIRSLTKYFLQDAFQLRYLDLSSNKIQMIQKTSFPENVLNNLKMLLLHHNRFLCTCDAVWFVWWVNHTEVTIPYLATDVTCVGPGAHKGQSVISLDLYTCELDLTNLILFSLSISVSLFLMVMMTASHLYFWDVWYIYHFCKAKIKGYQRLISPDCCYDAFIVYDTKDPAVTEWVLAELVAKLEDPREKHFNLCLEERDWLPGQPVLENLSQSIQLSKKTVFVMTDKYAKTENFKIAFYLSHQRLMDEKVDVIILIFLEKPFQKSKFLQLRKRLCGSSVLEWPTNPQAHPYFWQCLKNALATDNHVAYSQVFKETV
Experimental: Purpose: HEK-Blue™ hTLR7 and HEK-Blue™ hTLR8 cells were used to detect the agonist and cytotoxic activities of compounds against hTLR7 and hTLR8.
The experimental steps were as shown below: • 1) Preparation of compound: The compound was prepared into a 20 mM stock solution with DMSO, and then the stock solution was diluted 3-fold in a gradient and added to a 96-well plate, for a total of 10 concentrations, with duplicate wells for each concentration. For negative control wells, 0.5 μL DMSO was added to each well. The final DMSO concentration was 0.5%. • 2) HEK-Blue™ hTLR7 or HEK-Blue™ hTLR8 cells were suspended in culture medium and then seeded into 96-well plates containing compounds at a cell count of 50,000 per well. The compounds and cells were incubated for 24 h at 37° C., 5% Co2. • 3) QUANTI-Blue was used for the detection solution: to a mixture of 1 mL of QB reagent and 1 mL of QB buffer was added 98 mL of sterile water, the mixture was mixed and dissolved, and then placed at room temperature for 10 min. • 4) Activity test of the compound: 20 μL of the culture supernatant in step 2) was added to each well of a 96-well plate containing 180 μL of QUANTI-Blue detection solution. After incubation at 37° C. for 1 h, the absorbance at 650 nm (OD650) was detected using a multifunctional microplate reader Flextation III. • 5) Detection of cell activity: The chemiluminescent signal (RLU) was detected using the multifunctional microplate reader Flextation III according to the instructions of Celltiter-Glo. • 6) Data analysis
Activity of compounds: OD650 values were analyzed using GraphPad Prism software, and the compound dose-effect curves were fitted to calculate the EC50 values of the compounds.

hTLR8 = molecular target: T2, hTLR8 (Homo sapiens, UniProt Q9NR97); assay: Agonistic activity on human TLR8 in HEK-Blue hTLR8 cells (QUANTI-Blue); assay type: cell-based; settings: 24 h incubation, OD650, read-out: hTLR 8 EC50
T2 construct: expressed in transfected cells; host or cells: HEK-Blue hTLR8 cells
T2 sequence (Q9NR97 27-1041): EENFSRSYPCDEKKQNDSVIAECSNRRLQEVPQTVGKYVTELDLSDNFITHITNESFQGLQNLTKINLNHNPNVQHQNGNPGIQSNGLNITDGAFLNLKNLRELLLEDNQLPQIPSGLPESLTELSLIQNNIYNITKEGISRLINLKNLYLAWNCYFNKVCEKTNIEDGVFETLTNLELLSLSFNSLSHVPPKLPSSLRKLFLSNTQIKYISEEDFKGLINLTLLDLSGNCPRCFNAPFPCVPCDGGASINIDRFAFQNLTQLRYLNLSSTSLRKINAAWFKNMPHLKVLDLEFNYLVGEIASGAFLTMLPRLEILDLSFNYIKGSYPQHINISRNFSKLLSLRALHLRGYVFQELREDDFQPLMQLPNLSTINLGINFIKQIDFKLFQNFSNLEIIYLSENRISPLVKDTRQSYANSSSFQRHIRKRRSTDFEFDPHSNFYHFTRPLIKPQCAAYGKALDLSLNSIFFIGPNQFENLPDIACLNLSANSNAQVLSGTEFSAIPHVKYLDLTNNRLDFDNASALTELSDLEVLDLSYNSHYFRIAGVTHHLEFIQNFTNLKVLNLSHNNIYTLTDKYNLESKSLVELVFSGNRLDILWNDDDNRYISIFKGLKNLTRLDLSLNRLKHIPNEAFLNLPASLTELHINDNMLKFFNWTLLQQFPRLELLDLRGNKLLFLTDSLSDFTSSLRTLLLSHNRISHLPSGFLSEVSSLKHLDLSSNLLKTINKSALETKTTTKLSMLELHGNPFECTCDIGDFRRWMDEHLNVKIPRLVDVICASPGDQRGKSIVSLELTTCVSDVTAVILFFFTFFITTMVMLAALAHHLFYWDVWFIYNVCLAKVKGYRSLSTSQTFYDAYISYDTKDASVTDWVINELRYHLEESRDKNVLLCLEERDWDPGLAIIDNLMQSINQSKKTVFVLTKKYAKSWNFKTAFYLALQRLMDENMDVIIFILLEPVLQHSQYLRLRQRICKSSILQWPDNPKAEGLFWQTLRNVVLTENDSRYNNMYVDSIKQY

CYP2B6 Induction fold relative to blank control (CYP2B6)	CYP2B6 Induction percentage relative to positive control (%) (CYP2B6)	EC50 (hTLR7) [nM]	EC50 (hTLR8) [nM]	Compound
0.4	−5.6	68600	79	C=CCCN(C)Cc1c[nH]c(=O)cc1-c1ccc2c(N[C@@](C)(CO)CCCC)nc(N)nc2c1 [Example 35]
0.9	−0.7	29500	63	CCCCN(C)Cc1c[nH]c(=O)cc1-c1cnc2c(N[C@@](C)(CO)CCCC)nc(N)nc2c1 [Example 28, (R)-4-(2-Amino-4-((1-hydroxy-2-methylhexan-2-yl)amino)pyrido[3,2-d]pyrimidin-7-yl)-5-((butyl(methyl)amino)methyl)pyridin-2(1H)-one]
0.5	−4.8	90300	34	CCCC[C@](C)(CO)Nc1nc(N)nc2cc(-c3cc(=O)[nH]cc3CN(C)CCOC)cnc12 [Example 21]
0.6	−4.1	> 100000	42	CCCC[C@](C)(CO)Nc1nc(N)nc2cc(-c3cc(=O)n(C)cc3CN3CCCCC3)ccc12 [Example 8]
